In patent publication US20090253709A1 (NATIONAL DEFENSE MEDICAL CENTER, priority 2008, published 2009) one finds activity, melting point and viability data, which are given here for five compounds.

One may read the melting point as the temperature of the solid-liquid transition.

The test system of the first series is hTERT expression. The experiment in a line: SEAP assay in hTERT-BJ1-PTERT(3.4)-SEAP cells. The class given is cell-based. To be noted: Homo sapiens; BJ1; compound concentration 1 μM; read-out: SEAP (Inhibition μM ± SD).
As for `CCC(=O)Nc1ccc2c(c1)C(=O)c1cc(NC(=O)CC)ccc1C2=O` [Compound 27, 2,7-Bis(propionamido)anthraquinone], the activity at 1 µM was 78 ± 10%.

Take `O=C(Nc1ccc2c(c1)C(=O)c1cc(NC(=O)c3ccccc3)ccc1C2=O)c1ccccc1` [Compound 29, 2,7-Bis(benzoamido)anthraquinone]: the activity at 1 µM was 89 ± 2%.

As for `O=C(Cc1ccccc1)Nc1ccc2c(c1)C(=O)c1cc(NC(=O)Cc3ccccc3)ccc1C2=O` [Compound 30, 2,7-Bis(phenylacetamido)anthraquinone], the activity at 1 µM is 85 ± 8%.

For the compound `O=C(CCc1ccccc1)Nc1ccc2c(c1)C(=O)c1cc(NC(=O)CCc3ccccc3)ccc1C2=O` [Compound 31, 2,7-Bis(phenylpropionamido)anthraquinone], the activity at 1 µM turned out to be 74 ± 29%.

In the case of `O=C1c2ccc(NC(=O)C3CCCCC3)cc2C(=O)c2cc(NC(=O)C3CCCCC3)ccc21` [Compound 34, 2,7-Bis(cyclohexanecarbonamido)anthraquinone], the activity at 1 µM is 14 ± 67%.

The same series, now with this note: Homo sapiens; BJ1; compound concentration 10 μM; read-out: SEAP (Inhibition μM ± SD).
On to `CCC(=O)Nc1ccc2c(c1)C(=O)c1cc(NC(=O)CC)ccc1C2=O` [Compound 27, 2,7-Bis(propionamido)anthraquinone], for which the activity at 10 µM is 64 ± 8%.

Turning to `O=C(Nc1ccc2c(c1)C(=O)c1cc(NC(=O)c3ccccc3)ccc1C2=O)c1ccccc1` [Compound 29, 2,7-Bis(benzoamido)anthraquinone], the activity at 10 µM came to 72 ± 8%.

For the compound `O=C(Cc1ccccc1)Nc1ccc2c(c1)C(=O)c1cc(NC(=O)Cc3ccccc3)ccc1C2=O` [Compound 30, 2,7-Bis(phenylacetamido)anthraquinone], the activity at 10 µM was found to be 79 ± 6%.

As for `O=C(CCc1ccccc1)Nc1ccc2c(c1)C(=O)c1cc(NC(=O)CCc3ccccc3)ccc1C2=O` [Compound 31, 2,7-Bis(phenylpropionamido)anthraquinone], the activity at 10 µM is 92 ± 45%.

Regarding `O=C1c2ccc(NC(=O)C3CCCCC3)cc2C(=O)c2cc(NC(=O)C3CCCCC3)ccc21` [Compound 34, 2,7-Bis(cyclohexanecarbonamido)anthraquinone], the activity at 10 µM is 14 ± 53%.

The same series, now with this note: Homo sapiens; BJ1; compound concentration 100 μM; read-out: SEAP (Inhibition μM ± SD).
With `CCC(=O)Nc1ccc2c(c1)C(=O)c1cc(NC(=O)CC)ccc1C2=O` [Compound 27, 2,7-Bis(propionamido)anthraquinone], the activity at 100 µM worked out at 51 ± 8%.

For the compound `O=C(Nc1ccc2c(c1)C(=O)c1cc(NC(=O)c3ccccc3)ccc1C2=O)c1ccccc1` [Compound 29, 2,7-Bis(benzoamido)anthraquinone], the activity at 100 µM is 36 ± 13%.

As for `O=C(Cc1ccccc1)Nc1ccc2c(c1)C(=O)c1cc(NC(=O)Cc3ccccc3)ccc1C2=O` [Compound 30, 2,7-Bis(phenylacetamido)anthraquinone], the activity at 100 µM amounted to 40 ± 15%.

Take `O=C(CCc1ccccc1)Nc1ccc2c(c1)C(=O)c1cc(NC(=O)CCc3ccccc3)ccc1C2=O` [Compound 31, 2,7-Bis(phenylpropionamido)anthraquinone]: the activity at 100 µM came out at 43 ± 75%.

Turning to `O=C1c2ccc(NC(=O)C3CCCCC3)cc2C(=O)c2cc(NC(=O)C3CCCCC3)ccc21` [Compound 34, 2,7-Bis(cyclohexanecarbonamido)anthraquinone], the activity at 100 µM worked out at 22 ± 7%.

Test system in another series: not given
Test: not given
Conditions: not given
`CCC(=O)Nc1ccc2c(c1)C(=O)c1cc(NC(=O)CC)ccc1C2=O` [Compound 27, 2,7-Bis(propionamido)anthraquinone] showed a melting point of 291 °C.

Take `O=C(Nc1ccc2c(c1)C(=O)c1cc(NC(=O)c3ccccc3)ccc1C2=O)c1ccccc1` [Compound 29, 2,7-Bis(benzoamido)anthraquinone]: the melting point was found to be 224 °C.

As to `O=C(Cc1ccccc1)Nc1ccc2c(c1)C(=O)c1cc(NC(=O)Cc3ccccc3)ccc1C2=O` [Compound 30, 2,7-Bis(phenylacetamido)anthraquinone], the melting point was determined as 224 °C.

`O=C(CCc1ccccc1)Nc1ccc2c(c1)C(=O)c1cc(NC(=O)CCc3ccccc3)ccc1C2=O` [Compound 31, 2,7-Bis(phenylpropionamido)anthraquinone] displayed a melting point of 268 °C.

`O=C1c2ccc(NC(=O)C3CCCCC3)cc2C(=O)c2cc(NC(=O)C3CCCCC3)ccc21` [Compound 34, 2,7-Bis(cyclohexanecarbonamido)anthraquinone]: the melting point was 269 °C.

Test system in a further series: not listed separately
The series can be described thus: MTT assay in BJ1 cells. To be noted: human, hTERT-BJ1-PTERT(3.4)-SEAP cells; BJ1; compound concentration 1 μM; read-out: MTT (Inhibition μM ± SD). The class given is cell-based. The gist of the method:
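After 48 h drug treatment, cells in DMEM/Medium 199 (4:1) with 10% FBS were given MTT (5 mg/ml stock) in serum-free medium for 4 h at 37 °C, lysed overnight in 20% SDS/50% DMF, and absorbance read at 570 nm.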
(In general: Tetrazolium dyes change colour on reduction, which living cells bring about.)
`CCC(=O)Nc1ccc2c(c1)C(=O)c1cc(NC(=O)CC)ccc1C2=O` [Compound 27, 2,7-Bis(propionamido)anthraquinone]: the viability at 48 h, 1 µM came to 77 ± 2%.

As to `O=C(Nc1ccc2c(c1)C(=O)c1cc(NC(=O)c3ccccc3)ccc1C2=O)c1ccccc1` [Compound 29, 2,7-Bis(benzoamido)anthraquinone], the viability at 48 h, 1 µM is 92 ± 2%.

In the case of `O=C(Cc1ccccc1)Nc1ccc2c(c1)C(=O)c1cc(NC(=O)Cc3ccccc3)ccc1C2=O` [Compound 30, 2,7-Bis(phenylacetamido)anthraquinone], the viability at 48 h, 1 µM turned out to be 93 ± 2%.

Take `O=C(CCc1ccccc1)Nc1ccc2c(c1)C(=O)c1cc(NC(=O)CCc3ccccc3)ccc1C2=O` [Compound 31, 2,7-Bis(phenylpropionamido)anthraquinone]: the viability at 48 h, 1 µM came out at 89 ± 2%.

Take `O=C1c2ccc(NC(=O)C3CCCCC3)cc2C(=O)c2cc(NC(=O)C3CCCCC3)ccc21` [Compound 34, 2,7-Bis(cyclohexanecarbonamido)anthraquinone]: the viability at 48 h, 1 µM came to 87 ± 2%.

Still in this series, the particulars now being: human, hTERT-BJ1-PTERT(3.4)-SEAP cells; BJ1; compound concentration 10 μM; read-out: MTT (Inhibition μM ± SD).
As for `CCC(=O)Nc1ccc2c(c1)C(=O)c1cc(NC(=O)CC)ccc1C2=O` [Compound 27, 2,7-Bis(propionamido)anthraquinone], the viability at 48 h, 10 µM was 57 ± 2%.

Consider `O=C(Nc1ccc2c(c1)C(=O)c1cc(NC(=O)c3ccccc3)ccc1C2=O)c1ccccc1` [Compound 29, 2,7-Bis(benzoamido)anthraquinone], for which the viability at 48 h, 10 µM was determined as 85 ± 2%.

Consider `O=C(Cc1ccccc1)Nc1ccc2c(c1)C(=O)c1cc(NC(=O)Cc3ccccc3)ccc1C2=O` [Compound 30, 2,7-Bis(phenylacetamido)anthraquinone], for which the viability at 48 h, 10 µM was 80 ± 3%.

Take `O=C(CCc1ccccc1)Nc1ccc2c(c1)C(=O)c1cc(NC(=O)CCc3ccccc3)ccc1C2=O` [Compound 31, 2,7-Bis(phenylpropionamido)anthraquinone]: the viability at 48 h, 10 µM was 44%.

Regarding `O=C1c2ccc(NC(=O)C3CCCCC3)cc2C(=O)c2cc(NC(=O)C3CCCCC3)ccc21` [Compound 34, 2,7-Bis(cyclohexanecarbonamido)anthraquinone], the viability at 48 h, 10 µM stood at 76 ± 3%.

The same series, now with this note: human, hTERT-BJ1-PTERT(3.4)-SEAP cells; BJ1; compound concentration 100 μM; read-out: MTT (Inhibition μM ± SD).
With `CCC(=O)Nc1ccc2c(c1)C(=O)c1cc(NC(=O)CC)ccc1C2=O` [Compound 27, 2,7-Bis(propionamido)anthraquinone], the viability at 48 h, 100 µM stood at 48 ± 2%.

Take `O=C(Nc1ccc2c(c1)C(=O)c1cc(NC(=O)c3ccccc3)ccc1C2=O)c1ccccc1` [Compound 29, 2,7-Bis(benzoamido)anthraquinone]: the viability at 48 h, 100 µM was found to be 97 ± 3%.

On to `O=C(Cc1ccccc1)Nc1ccc2c(c1)C(=O)c1cc(NC(=O)Cc3ccccc3)ccc1C2=O` [Compound 30, 2,7-Bis(phenylacetamido)anthraquinone], for which the viability at 48 h, 100 µM was 86 ± 4%.

With `O=C(CCc1ccccc1)Nc1ccc2c(c1)C(=O)c1cc(NC(=O)CCc3ccccc3)ccc1C2=O` [Compound 31, 2,7-Bis(phenylpropionamido)anthraquinone], the viability at 48 h, 100 µM came to 44 ± 1%.

Turning to `O=C1c2ccc(NC(=O)C3CCCCC3)cc2C(=O)c2cc(NC(=O)C3CCCCC3)ccc21` [Compound 34, 2,7-Bis(cyclohexanecarbonamido)anthraquinone], the viability at 48 h, 100 µM was found to be 64 ± 2%.

Test system in a further series: not listed separately
The series can be described thus: MTT assay in H1299 cells. The class given is cell-based. To be noted: human, H1299 cells (H1299/PhTERT-driven SEAP reporter system); H1299; compound concentration 1 μM; read-out: MTT (Inhibition μM ± SD). The method, boiled down:
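H1299 cells, 2×10^3 per well, treated with drug 48 h. MTT (5 mg/ml stock) added for 4 h at 37° C, then SDS/DMF lysis overnight; absorbance at 570 nm gives viability, used alongside SEAP reporter readout to correct for cell number.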
As for `CCC(=O)Nc1ccc2c(c1)C(=O)c1cc(NC(=O)CC)ccc1C2=O` [Compound 27, 2,7-Bis(propionamido)anthraquinone], the viability at 24 h, 1 µM turned out to be 70 ± 25%.

`O=C(Nc1ccc2c(c1)C(=O)c1cc(NC(=O)c3ccccc3)ccc1C2=O)c1ccccc1` [Compound 29, 2,7-Bis(benzoamido)anthraquinone]: the viability at 24 h, 1 µM was 71 ± 24%.

Take `O=C(Cc1ccccc1)Nc1ccc2c(c1)C(=O)c1cc(NC(=O)Cc3ccccc3)ccc1C2=O` [Compound 30, 2,7-Bis(phenylacetamido)anthraquinone]: the viability at 24 h, 1 µM stood at 106 ± 12%.

Regarding `O=C(CCc1ccccc1)Nc1ccc2c(c1)C(=O)c1cc(NC(=O)CCc3ccccc3)ccc1C2=O` [Compound 31, 2,7-Bis(phenylpropionamido)anthraquinone], the viability at 24 h, 1 µM was 102 ± 11%.

Consider `O=C1c2ccc(NC(=O)C3CCCCC3)cc2C(=O)c2cc(NC(=O)C3CCCCC3)ccc21` [Compound 34, 2,7-Bis(cyclohexanecarbonamido)anthraquinone], for which the viability at 24 h, 1 µM was 90 ± 3%.

The same series, now with this note: human, H1299 cells (H1299/PhTERT-driven SEAP reporter system); H1299; compound concentration 10 μM; read-out: MTT (Inhibition μM ± SD).
As to `CCC(=O)Nc1ccc2c(c1)C(=O)c1cc(NC(=O)CC)ccc1C2=O` [Compound 27, 2,7-Bis(propionamido)anthraquinone], the viability at 24 h, 10 µM was 38 ± 17%.

For `O=C(Nc1ccc2c(c1)C(=O)c1cc(NC(=O)c3ccccc3)ccc1C2=O)c1ccccc1` [Compound 29, 2,7-Bis(benzoamido)anthraquinone], the viability at 24 h, 10 µM amounted to 47 ± 13%.

In the case of `O=C(Cc1ccccc1)Nc1ccc2c(c1)C(=O)c1cc(NC(=O)Cc3ccccc3)ccc1C2=O` [Compound 30, 2,7-Bis(phenylacetamido)anthraquinone], the viability at 24 h, 10 µM was 96 ± 17%.

On to `O=C(CCc1ccccc1)Nc1ccc2c(c1)C(=O)c1cc(NC(=O)CCc3ccccc3)ccc1C2=O` [Compound 31, 2,7-Bis(phenylpropionamido)anthraquinone], for which the viability at 24 h, 10 µM was 94 ± 13%.

Regarding `O=C1c2ccc(NC(=O)C3CCCCC3)cc2C(=O)c2cc(NC(=O)C3CCCCC3)ccc21` [Compound 34, 2,7-Bis(cyclohexanecarbonamido)anthraquinone], the viability at 24 h, 10 µM worked out at 63 ± 13%.

The series is the same for the next values; noted with them: human, H1299 cells (H1299/PhTERT-driven SEAP reporter system); H1299; compound concentration 100 μM; read-out: MTT (Inhibition μM ± SD).
In the case of `CCC(=O)Nc1ccc2c(c1)C(=O)c1cc(NC(=O)CC)ccc1C2=O` [Compound 27, 2,7-Bis(propionamido)anthraquinone], the viability at 24 h, 100 µM was 35 ± 15%.

For the compound `O=C(Nc1ccc2c(c1)C(=O)c1cc(NC(=O)c3ccccc3)ccc1C2=O)c1ccccc1` [Compound 29, 2,7-Bis(benzoamido)anthraquinone], the viability at 24 h, 100 µM is 41 ± 30%.

`O=C(Cc1ccccc1)Nc1ccc2c(c1)C(=O)c1cc(NC(=O)Cc3ccccc3)ccc1C2=O` [Compound 30, 2,7-Bis(phenylacetamido)anthraquinone]: the viability at 24 h, 100 µM came out at 75 ± 22%.

`O=C(CCc1ccccc1)Nc1ccc2c(c1)C(=O)c1cc(NC(=O)CCc3ccccc3)ccc1C2=O` [Compound 31, 2,7-Bis(phenylpropionamido)anthraquinone]: the viability at 24 h, 100 µM was found to be 76 ± 18%.

As to `O=C1c2ccc(NC(=O)C3CCCCC3)cc2C(=O)c2cc(NC(=O)C3CCCCC3)ccc21` [Compound 34, 2,7-Bis(cyclohexanecarbonamido)anthraquinone], the viability at 24 h, 100 µM was determined as 52 ± 16%.
